Laboratory results reported in ChEMBL document CHEMBL1201862, “PubChem BioAssay data set” (2004).
The source made the active and inactive calls.

How the values were obtained:
[1] = target: Muscarinic acetylcholine receptor M1 (Rattus norvegicus, UniProt P08482); experiment: concentration-dependent potentiation of ACh at M1 – cell-based, calcium mobilization, CHO-K1, ACh EC20, dose response (AID 2425); type: functional
[2] = target: E3 ubiquitin-protein ligase Mdm2 (Homo sapiens, UniProt Q00987); experiment: MDM2-luc reporter signal enhancers, multi-concentration potency testing, MDM2 ubiquitin-protein ligase inhibitor program, whole-cell format, luminescence detection, 384-well microplate (AID 1394); type: functional;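 note: MDM2 E3 inhibitors raise luminescence so EC50 is for signal enhancement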
Sequence of E3 ubiquitin-protein ligase Mdm2 (Q00987 whole entry): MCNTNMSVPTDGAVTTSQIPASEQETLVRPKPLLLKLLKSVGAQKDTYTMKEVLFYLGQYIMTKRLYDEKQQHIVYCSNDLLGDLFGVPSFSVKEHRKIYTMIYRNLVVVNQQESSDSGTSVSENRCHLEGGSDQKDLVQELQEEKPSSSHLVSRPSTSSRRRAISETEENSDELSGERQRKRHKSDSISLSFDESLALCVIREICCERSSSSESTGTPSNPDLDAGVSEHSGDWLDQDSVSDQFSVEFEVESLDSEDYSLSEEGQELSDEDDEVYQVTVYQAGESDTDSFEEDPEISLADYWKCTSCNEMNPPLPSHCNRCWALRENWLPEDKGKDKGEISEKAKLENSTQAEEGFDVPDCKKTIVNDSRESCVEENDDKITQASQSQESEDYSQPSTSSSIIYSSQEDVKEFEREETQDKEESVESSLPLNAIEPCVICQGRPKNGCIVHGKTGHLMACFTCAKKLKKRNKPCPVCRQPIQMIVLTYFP

Galanin receptor type 2 = Galanin receptor type 2 (Homo sapiens, UniProt O43603); experiment: Dose Response cell-based high-throughput screening assay to identify antagonists of galanin receptor 2 (GALR2). [Related pubchem assays: 828, 866 ]; type: functional
Sequence of Galanin receptor type 2 (O43603 whole entry): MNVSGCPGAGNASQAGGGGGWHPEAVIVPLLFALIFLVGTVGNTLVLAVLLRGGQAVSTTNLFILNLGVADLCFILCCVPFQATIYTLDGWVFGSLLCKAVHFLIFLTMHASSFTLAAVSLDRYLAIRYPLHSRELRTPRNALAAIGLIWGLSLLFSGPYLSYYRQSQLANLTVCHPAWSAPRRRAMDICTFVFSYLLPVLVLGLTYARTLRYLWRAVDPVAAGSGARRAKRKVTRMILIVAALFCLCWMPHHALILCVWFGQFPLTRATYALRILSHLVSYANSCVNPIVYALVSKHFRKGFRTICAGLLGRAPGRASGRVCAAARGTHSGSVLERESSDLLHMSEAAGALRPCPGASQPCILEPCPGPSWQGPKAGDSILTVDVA

[3] = target: Sphingosine 1-phosphate receptor 4 (Homo sapiens, UniProt O95977); experiment: Fluorescence dose response cell-based high throughput screening assay for antagonists of the Sphingosine 1-Phosphate Receptor 4 (S1P4). [Related pubchem assays: 1524 (Confirmation in triplicates.), 1510 (Primary screen.)]; type: functional
Sequence of Sphingosine 1-phosphate receptor 4 (O95977 whole entry): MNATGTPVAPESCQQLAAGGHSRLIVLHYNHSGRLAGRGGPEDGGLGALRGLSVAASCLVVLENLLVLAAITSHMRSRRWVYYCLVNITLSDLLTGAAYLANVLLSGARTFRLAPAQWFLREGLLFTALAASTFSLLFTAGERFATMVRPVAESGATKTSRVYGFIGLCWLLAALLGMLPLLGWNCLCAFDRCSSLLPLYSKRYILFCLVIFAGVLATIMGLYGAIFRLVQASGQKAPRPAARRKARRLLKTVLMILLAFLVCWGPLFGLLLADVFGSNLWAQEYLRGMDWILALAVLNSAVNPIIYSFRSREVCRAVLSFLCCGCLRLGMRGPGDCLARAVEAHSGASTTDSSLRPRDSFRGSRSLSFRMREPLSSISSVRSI

[4] = target: Sphingosine 1-phosphate receptor 1 (Homo sapiens, UniProt P21453); type: functional;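 note: Tango beta-arrestin reporter U2OS cells stimulated with S1P near its EC80; inhibitor potency meaning antagonism of receptor activation by the natural agonist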
Sequence of Sphingosine 1-phosphate receptor 1 (P21453 whole entry): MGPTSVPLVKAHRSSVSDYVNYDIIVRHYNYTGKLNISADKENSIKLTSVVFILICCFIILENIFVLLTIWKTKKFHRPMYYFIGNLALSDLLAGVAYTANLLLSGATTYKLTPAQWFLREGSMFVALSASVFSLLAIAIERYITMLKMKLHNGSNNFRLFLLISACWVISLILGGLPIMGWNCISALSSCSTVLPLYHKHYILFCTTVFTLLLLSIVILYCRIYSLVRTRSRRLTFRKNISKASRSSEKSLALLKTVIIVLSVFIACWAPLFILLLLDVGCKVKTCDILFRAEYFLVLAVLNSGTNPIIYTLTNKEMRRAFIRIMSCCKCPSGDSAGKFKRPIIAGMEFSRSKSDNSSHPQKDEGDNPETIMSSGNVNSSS

[5] = target: T1, Microphthalmia-associated transcription factor (Homo sapiens, UniProt O75030); experiment: reducers of TRPM1 reporter luminescence, concentration series – cell-based, SK-MEL-5, cherry-picked, set 3, MITF inhibitor project, dose response (AID 493073); type: functional;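 note: SK-MEL-5 melanoma cells with luciferase driven by the MITF target TRPM1 promoter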
T1 sequence (O75030 whole entry): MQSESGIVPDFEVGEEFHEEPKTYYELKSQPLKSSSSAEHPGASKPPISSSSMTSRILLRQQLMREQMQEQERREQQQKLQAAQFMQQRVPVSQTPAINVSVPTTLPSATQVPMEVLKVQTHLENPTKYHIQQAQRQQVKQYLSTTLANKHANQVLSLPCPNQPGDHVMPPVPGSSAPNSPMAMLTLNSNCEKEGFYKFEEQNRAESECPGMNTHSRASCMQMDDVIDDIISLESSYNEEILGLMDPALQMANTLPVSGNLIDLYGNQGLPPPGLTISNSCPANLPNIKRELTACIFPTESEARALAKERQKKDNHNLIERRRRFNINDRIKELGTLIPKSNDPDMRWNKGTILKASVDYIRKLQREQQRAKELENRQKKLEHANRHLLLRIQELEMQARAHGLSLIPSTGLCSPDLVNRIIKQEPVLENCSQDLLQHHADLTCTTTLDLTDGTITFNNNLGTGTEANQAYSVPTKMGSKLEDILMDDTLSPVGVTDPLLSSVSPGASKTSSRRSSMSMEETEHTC

[6] = activation of miR-122 Renilla sensor silencing – cell-based, Huh7 psiCHECK-miR122, Renilla luciferase, cherry-picked, dose response (AID 651956); type: functional;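 note: huh7 hepatoma cells stably carrying a psiCHECK-2 miR-122 sensor plasmid; renilla luciferase signal reporting endogenous miR-122 activity after 48 h compound exposure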
[7] = general mammalian cell viability loss – activator set, cherry-pick, cytotoxicity control for miR-122 modulator project, dose response (AID 720690); type: functional, cell-based;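 note: HEK293T human cells scored for general mammalian cytotoxicity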
[8] = target: Mitogen-activated protein kinase 10 (Homo sapiens, UniProt P53779); experiment: Dose response biochemical screening assay for inhibitors of c-Jun N-Terminal Kinase 3 (JNK3). [Related pubchem assays: 746 ]
Sequence of Mitogen-activated protein kinase 10 (P53779 whole entry): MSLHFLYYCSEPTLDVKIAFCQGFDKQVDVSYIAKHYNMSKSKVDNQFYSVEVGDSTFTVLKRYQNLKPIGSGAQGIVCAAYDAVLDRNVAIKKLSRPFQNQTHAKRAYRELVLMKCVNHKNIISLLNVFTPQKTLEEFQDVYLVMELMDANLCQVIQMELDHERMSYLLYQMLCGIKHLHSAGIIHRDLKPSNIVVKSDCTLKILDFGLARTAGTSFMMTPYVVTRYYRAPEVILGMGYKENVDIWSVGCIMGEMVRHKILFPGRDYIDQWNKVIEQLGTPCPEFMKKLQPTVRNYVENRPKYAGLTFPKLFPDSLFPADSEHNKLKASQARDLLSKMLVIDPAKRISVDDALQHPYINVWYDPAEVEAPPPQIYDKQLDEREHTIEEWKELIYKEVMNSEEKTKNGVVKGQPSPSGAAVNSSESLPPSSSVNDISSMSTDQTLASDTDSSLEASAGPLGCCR

[9] = target: Induced myeloid leukemia cell differentiation protein Mcl-1 (Homo sapiens, UniProt Q07820); type: functional
Sequence of Induced myeloid leukemia cell differentiation protein Mcl-1 (Q07820 whole entry): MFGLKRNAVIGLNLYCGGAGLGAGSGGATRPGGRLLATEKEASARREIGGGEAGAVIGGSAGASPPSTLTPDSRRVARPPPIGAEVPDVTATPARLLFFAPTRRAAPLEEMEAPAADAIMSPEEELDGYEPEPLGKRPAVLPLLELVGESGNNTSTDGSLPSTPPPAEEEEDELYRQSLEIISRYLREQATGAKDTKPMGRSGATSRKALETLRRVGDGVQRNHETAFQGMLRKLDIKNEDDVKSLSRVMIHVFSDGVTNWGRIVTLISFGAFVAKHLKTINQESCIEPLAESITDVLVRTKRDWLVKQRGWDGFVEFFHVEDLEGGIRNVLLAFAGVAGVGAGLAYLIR

[10] = viability loss in THP-1 monocytes – THP-1 cells, cytotoxicity control for Vif-APOBEC3G degradation inhibitor project, dose response (AID 1117359); type: functional; settings: THP-1
Vero [11] = experiment: inhibition of WNV-induced cytopathic effect – cell-based, CPE readout (AID 1621); type: functional; settings: Chlorocebus sabaeus
Vero [12] = experiment: cells; type: functional, cell-based; settings: Chlorocebus sabaeus
[13] = target: Serine/threonine-protein phosphatase PP1-alpha catalytic subunit (Homo sapiens, UniProt P62136); experiment: inhibition of protein phosphatase 1 activity – biochemical, fluorescence, dose response (AID 2394)
Sequence of Serine/threonine-protein phosphatase PP1-alpha catalytic subunit (P62136 whole entry): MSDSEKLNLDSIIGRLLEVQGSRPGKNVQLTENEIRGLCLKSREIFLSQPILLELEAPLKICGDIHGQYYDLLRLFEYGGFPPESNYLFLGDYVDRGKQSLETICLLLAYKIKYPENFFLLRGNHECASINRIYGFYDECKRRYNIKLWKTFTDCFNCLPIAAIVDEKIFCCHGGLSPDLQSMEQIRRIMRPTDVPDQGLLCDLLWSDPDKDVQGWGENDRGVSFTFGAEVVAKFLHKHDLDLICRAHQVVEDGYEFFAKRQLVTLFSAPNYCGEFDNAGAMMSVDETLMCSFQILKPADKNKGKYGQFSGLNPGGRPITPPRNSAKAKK

[14] = target: T2, Serine/threonine-protein phosphatase (Homo sapiens, UniProt Q9BPW0); experiment: inhibition of protein phosphatase 5 activity – biochemical, fluorescence, dose response (AID 2395)
T2 sequence (Q9BPW0 whole entry): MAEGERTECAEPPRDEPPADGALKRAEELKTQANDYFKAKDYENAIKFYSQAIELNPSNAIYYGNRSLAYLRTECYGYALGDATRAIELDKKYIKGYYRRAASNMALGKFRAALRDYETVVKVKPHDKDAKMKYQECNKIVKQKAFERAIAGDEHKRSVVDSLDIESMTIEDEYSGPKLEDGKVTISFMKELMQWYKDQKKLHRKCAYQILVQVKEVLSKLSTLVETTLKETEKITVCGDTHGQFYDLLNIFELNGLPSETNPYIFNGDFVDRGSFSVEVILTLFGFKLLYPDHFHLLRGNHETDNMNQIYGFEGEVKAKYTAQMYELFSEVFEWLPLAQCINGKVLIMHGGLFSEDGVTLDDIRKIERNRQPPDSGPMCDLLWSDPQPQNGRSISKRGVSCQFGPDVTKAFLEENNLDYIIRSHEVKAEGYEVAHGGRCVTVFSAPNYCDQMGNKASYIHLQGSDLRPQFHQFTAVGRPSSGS

[15] = target: T3, Sentrin-specific protease 8 (Homo sapiens, UniProt Q96LD8); type: functional
T3 sequence (Q96LD8 whole entry): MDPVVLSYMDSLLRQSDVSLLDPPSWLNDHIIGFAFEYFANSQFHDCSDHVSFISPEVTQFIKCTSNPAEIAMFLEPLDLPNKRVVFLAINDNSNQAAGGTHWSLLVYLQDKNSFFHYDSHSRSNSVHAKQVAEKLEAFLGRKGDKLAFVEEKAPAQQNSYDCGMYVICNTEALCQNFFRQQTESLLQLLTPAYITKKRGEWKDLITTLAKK

[16] = target: T3, Sentrin-specific protease 8; type: functional; remark: listed apart in the source
[17] = target: T4, Histone-lysine N-methyltransferase NSD2 (Homo sapiens, UniProt O96028); type: biochemical
T4 sequence (O96028 whole entry): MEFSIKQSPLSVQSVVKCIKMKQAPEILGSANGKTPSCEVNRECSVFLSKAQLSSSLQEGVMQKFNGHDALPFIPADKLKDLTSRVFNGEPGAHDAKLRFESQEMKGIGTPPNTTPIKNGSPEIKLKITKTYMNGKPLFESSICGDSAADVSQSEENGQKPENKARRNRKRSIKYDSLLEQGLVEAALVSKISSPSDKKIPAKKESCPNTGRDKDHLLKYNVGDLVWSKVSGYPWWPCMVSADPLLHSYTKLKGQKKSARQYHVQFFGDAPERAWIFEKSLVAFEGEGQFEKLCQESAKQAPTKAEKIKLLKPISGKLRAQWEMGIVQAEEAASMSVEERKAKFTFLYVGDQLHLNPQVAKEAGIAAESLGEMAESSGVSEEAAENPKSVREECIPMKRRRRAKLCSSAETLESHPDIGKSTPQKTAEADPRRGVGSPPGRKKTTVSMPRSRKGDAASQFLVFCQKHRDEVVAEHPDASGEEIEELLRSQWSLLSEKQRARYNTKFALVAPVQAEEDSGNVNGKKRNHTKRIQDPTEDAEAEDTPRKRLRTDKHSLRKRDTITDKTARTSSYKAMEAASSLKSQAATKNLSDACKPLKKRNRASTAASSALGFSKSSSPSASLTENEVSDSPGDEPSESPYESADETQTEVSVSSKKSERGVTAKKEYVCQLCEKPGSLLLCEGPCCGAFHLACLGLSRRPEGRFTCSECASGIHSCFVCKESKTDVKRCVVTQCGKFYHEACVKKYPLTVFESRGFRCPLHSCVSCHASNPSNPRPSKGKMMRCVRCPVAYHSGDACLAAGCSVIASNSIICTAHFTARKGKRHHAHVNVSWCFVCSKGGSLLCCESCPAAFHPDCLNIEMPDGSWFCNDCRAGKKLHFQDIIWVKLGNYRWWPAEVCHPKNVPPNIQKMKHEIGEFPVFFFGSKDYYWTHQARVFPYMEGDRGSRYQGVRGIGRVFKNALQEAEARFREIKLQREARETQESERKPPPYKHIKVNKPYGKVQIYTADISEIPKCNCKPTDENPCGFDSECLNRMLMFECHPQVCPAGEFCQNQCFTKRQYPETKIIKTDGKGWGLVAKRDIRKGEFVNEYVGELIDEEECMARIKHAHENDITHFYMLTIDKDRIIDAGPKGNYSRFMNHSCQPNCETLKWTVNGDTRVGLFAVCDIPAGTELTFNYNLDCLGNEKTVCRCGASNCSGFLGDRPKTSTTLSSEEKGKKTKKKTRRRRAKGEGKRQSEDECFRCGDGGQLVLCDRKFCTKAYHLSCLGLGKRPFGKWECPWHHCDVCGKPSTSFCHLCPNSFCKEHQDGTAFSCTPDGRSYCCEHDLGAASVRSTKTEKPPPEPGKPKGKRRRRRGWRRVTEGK

[18] = viability inhibitors of stage V gametocytes – luminescence, dose response (AID 1117278); type: functional, cell-based;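 note: gametocytes exposed to compound for 24 hours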
[19] = viability loss in human Jurkat cells – cell-based, luminescence, cytotoxicity control for P. falciparum gametocyte viability project, dose response (AID 1117277); type: functional;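 note: potency reflects loss of cellular ATP meaning fewer viable cells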
[20] = antiviral protection against BTV-induced cell death – arbovirus, BSR cells, confirmation (AID 1250); type: functional;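 note: protection from viral cytopathic effect measured as cell viability by ATP luminescence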
[21] = target: T5, Carboxy-terminal domain RNA polymerase II polypeptide A small phosphatase 1 (Homo sapiens, UniProt Q9GZU7); experiment: CTDSP1 inhibitors, concentration-response, biochemical, absorbance readout, ultra-high-throughput screen actives (AID 540297); type: functional
T5 sequence (Q9GZU7 whole entry): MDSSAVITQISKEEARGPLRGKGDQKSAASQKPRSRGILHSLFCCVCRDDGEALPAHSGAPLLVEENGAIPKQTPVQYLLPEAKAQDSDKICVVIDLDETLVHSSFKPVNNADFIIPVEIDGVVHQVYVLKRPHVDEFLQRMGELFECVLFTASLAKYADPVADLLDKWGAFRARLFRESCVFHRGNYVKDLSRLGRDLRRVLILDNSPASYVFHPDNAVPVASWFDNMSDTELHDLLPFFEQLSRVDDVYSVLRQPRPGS

[22] = lung carcinoma cell viability loss – CellTiter-Glo luminescence, dry powder, set 17, dose response (AID 1117284); type: functional, cell-based; settings: A549
[23] = CellTiter-Glo luminescence survival assay, SW480 colon tumor line, concentration-response curve, half-maximal inhibitory concentration (AID 1117338); type: functional
[24] = IC50 of insulin release inhibition, rat insulinoma INS-1E line, 5 mM glucose, cell-based (AID 1117331); type: functional
[25] = RKO cell viability reduction, dose response, CellTiter-Glo luminescence (AID 1117322); type: functional
[26] = cytotoxicity toward HCT116 cells – cell-based, CellTiter-Glo luminescence, IC50, dose response (AID 1117332); type: functional; settings: HCT-116
[27] = SNU-C1 cell viability reduction, dose response, CellTiter-Glo luminescence (AID 1117323); type: functional, cell-based
cells = type: functional, cell-based; settings: INS-1E
[28] = cytotoxicity toward HT-29 cells – cell-based, CellTiter-Glo luminescence, IC50, dose response (AID 1117330); type: functional
[29] = Reduced DLD-1 viability, concentration-response, CellTiter-Glo luminescence (AID 1117352); type: functional
[30] = HCT116 cell viability decrease, GSK3B pretreatment – CellTiter-Glo, IC50, dose response (AID 1117339); type: functional; settings: HCT-116

Sequence of Muscarinic acetylcholine receptor M1 (P08482 whole entry): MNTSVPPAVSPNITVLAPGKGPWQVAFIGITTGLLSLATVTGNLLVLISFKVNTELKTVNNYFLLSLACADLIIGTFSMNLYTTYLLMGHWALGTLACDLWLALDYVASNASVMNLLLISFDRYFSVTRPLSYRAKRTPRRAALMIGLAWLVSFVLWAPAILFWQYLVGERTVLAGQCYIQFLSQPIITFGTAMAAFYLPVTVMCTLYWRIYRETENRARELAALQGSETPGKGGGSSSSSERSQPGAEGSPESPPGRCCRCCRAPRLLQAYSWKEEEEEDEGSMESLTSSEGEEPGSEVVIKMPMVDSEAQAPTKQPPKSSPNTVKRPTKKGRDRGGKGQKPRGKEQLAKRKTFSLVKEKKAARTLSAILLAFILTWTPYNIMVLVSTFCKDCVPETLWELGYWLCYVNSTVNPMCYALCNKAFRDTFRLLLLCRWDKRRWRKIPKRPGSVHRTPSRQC

## Cn1cc(-c2ccc(CN3C(=O)C(=O)c4c(F)ccc(F)c43)c(F)c2)cn1
[1]
  EC50: 1.23 µM (active)

## Cn1cc(-c2cc(F)c(CN3C(=O)C(=O)c4cccc(F)c43)c(F)c2)cn1
[1]
  EC50: 1.03 µM (active)

## Cc1noc(C)c1COc1ccc(C(=O)NCc2ccccn2)cc1
[2]
  EC50: 2.96 µM (not active)

## CCc1ccccc1NC(=O)CN(C)C(=O)Cn1ncc(Cl)c(Cl)c1=O
Galanin receptor type 2
  IC50: 7.62 µM (active)
[3]
  IC50: 2.11 µM (active)
[4]
  IC50: 13.6 µM (not active)
[5]
  AC50: 11 µM (active)
[6]
  AC50: 13.2 µM (active)
[7]
  AC50: 4.59 µM (active)

## O=C(c1cccc(F)c1)N1CCCC(C(=O)N2CCCC2)C1 (configuration not stated)
[8]
  IC50: > 93.1 µM (not active)

## Cc1cc(C(=O)COC(=O)c2cc(O)c3ccccc3c2O)c(C)n1CC1CCCO1 (configuration not stated)
[9]
  IC50: 3.09 µM (active)
[10]
  CC50: 25.9 µM (active)

## CN(C)CCNC(=O)c1cc2sc3ccccc3c2s1
Vero [11]
  IC50: 24.5 µM (active)
Vero [12]
  IC50: 21 µM (active)

## CCOc1ccc(NC(S)=Nc2ccc3nsnc3c2)cc1
[13]
  IC50: > 67 µM (not active)
[14]
  IC50: 8.78 µM (active)
[15]
  IC50: 5.72 µM (active)
[16]
  IC50: 2.32 µM (active)
[17]
  AC50: 4.61 µM (active)

## CCN(CC)CCNC(=O)C1CCN(S(=O)(=O)c2c(C)noc2/C=C/c2ccccc2F)CC1
Vero [11]
  IC50: 25 µM (active)

## COc1ccc(N2C(=O)CSC23C(=O)N2CCCc4cccc3c42)cc1 (configuration not stated)
[18]
  IC50: > 109 µM (inactive)
[19]
  IC50: > 83.3 µM (inactive)

## O=C(COC(=O)c1ccc(NS(=O)(=O)c2cccs2)cc1)Nc1nc2c(F)c(F)c(F)cc2s1
[20]
  IC50: 46.2 µM (active)
[21]
  IC50: 4.05 µM (active)

## Cc1cc(C(=O)Nc2cccc3ccccc23)n(-c2ccccc2)n1
[2]
  EC50: 25 µM (not active)

## COc1cccc(-c2ccc(CN(C)C[C@@H]3Oc4cc(C#C[C@@H](C)O)ccc4S(=O)(=O)N([C@@H](C)CO)C[C@@H]3C)cc2)c1
[22]
  AC50: 32.6 µM (active)

## COc1ccc(-c2ccc3c(c2)O[C@@H](CN(C)Cc2ccc(-c4ccccc4)cc2)[C@@H](C)CN([C@@H](C)CO)S3(=O)=O)cc1
[22]
  AC50: 32.6 µM (active)

## c1csc(-c2cnc3ccccc3n2)c1
[8]
  IC50: 34 µM (not active)

## Cc1c(C)n(Cc2ccccc2)c2ccc(C(=O)OCCN(C)C)cc12 [INDOCATE]
[23]
  IC50: 8.78 µM (inactive)
[24]
  IC50: 3.84 µM (active)
[25]
  IC50: 12.8 µM (inactive)
[26]
  IC50: 11.8 µM (inactive)
[27]
  IC50: 12 µM (inactive)
cells
  IC50: 14.9 µM (inactive)
[28]
  IC50: > 6.67 µM (inactive)
[29]
  IC50: 11.3 µM (inactive)
[30]
  IC50: 5.47 µM (inactive)
